Tests used:
GPR126 [1] = target: T1, GPR126 (Homo sapiens, UniProt Q86SQ4); type: cell-based
T1 sequence (Q86SQ4 38-1221): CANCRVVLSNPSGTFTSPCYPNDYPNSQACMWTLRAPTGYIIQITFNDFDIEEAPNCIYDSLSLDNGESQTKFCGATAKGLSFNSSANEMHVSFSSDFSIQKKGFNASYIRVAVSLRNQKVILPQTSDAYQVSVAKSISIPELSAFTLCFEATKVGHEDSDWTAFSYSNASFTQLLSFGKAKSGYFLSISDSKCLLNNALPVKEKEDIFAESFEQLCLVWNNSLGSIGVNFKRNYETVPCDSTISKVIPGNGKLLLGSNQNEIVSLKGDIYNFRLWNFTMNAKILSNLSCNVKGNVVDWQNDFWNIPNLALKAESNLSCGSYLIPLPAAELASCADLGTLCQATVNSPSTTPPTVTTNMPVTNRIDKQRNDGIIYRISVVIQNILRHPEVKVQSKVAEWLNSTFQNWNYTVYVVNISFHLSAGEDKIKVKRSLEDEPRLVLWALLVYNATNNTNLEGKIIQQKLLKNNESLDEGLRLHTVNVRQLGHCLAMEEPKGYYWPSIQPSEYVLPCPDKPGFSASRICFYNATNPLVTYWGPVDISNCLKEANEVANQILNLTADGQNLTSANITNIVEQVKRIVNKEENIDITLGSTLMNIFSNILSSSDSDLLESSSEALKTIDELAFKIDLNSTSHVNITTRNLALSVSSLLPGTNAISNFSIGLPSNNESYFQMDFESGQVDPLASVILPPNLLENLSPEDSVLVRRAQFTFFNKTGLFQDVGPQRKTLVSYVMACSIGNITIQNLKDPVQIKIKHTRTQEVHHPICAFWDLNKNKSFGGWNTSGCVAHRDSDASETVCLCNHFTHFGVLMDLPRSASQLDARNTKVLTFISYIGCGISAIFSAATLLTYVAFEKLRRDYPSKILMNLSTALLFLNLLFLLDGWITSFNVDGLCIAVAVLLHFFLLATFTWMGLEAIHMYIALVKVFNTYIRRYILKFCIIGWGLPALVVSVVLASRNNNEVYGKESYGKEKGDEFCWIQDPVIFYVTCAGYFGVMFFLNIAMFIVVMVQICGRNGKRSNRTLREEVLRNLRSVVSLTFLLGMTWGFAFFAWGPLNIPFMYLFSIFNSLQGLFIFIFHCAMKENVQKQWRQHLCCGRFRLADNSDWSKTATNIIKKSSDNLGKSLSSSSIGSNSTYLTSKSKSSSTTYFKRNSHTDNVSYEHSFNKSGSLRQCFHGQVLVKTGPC

GPR126 [2] = target: T1, GPR126; conditions: angiotensin II and AT1R as controls
PAQR8 = target: T2, PAQR8 (Homo sapiens, UniProt Q8TEZ7); assay: GloSensor cAMP inhibition assay in HEK293 cells overexpressing PAQR8; type: cell-based; conditions: similar plasma membrane expression levels
T2 sequence (Q8TEZ7 1-354): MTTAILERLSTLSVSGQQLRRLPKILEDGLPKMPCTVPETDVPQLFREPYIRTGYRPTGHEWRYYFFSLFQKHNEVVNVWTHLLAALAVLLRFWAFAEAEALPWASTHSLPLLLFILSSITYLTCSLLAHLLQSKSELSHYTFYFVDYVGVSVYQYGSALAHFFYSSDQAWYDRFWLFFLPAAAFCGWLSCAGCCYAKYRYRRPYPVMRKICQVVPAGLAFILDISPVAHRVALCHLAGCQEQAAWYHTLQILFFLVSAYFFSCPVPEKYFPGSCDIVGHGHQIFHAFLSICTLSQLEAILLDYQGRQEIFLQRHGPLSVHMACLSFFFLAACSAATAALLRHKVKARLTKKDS

GPR126 [3] = target: T1, GPR126; assay: cell-based; type: cell-based
MDA-MB-231 cells [4] = assay: Colony formation assay; type: cell-based, human
MDA-MB-231 cells [5] = type: cell-based, human
SRC = assay: Western blot of p-SRC Y416, p-AKT S473, p-ERK T202/Y204; type: cell-based, human; conditions: 10 nM
PAQR7 = target: T3, PAQR7 (Homo sapiens, UniProt Q86WK9); assay: GloSensor cAMP inhibition assay in HEK293 cells overexpressing PAQR7; type: cell-based; conditions: similar plasma membrane expression levels
T3 sequence (Q86WK9 1-346): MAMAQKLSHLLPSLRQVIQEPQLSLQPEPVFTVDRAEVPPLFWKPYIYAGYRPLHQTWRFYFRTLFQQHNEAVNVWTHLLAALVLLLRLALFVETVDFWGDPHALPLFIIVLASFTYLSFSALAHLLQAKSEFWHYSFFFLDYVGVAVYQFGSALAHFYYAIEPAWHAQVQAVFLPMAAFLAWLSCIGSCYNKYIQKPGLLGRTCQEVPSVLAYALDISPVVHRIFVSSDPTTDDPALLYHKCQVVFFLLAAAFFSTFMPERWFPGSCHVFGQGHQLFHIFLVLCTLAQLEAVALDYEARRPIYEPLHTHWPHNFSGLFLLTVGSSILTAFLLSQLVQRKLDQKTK

[6] = Plasma progesterone level after intraperitoneal injection; type: in vivo, nude mice
GPR126 [7] = type: cell-based, human

SMILES: CC(=O)[C@H]1CC[C@H]2[C@@H]3CCC4=CC(=O)CC[C@]4(C)[C@H]3CC[C@]12C [progesterone]
- cAMP levels in GPR126 knocking down cells (GPR126 [1]): no significant effects
- cAMP levels induced by Fsk in GPR126-expressing cells (GPR126 [1]): inhibited
- Gq activity of GPR126 (GPR126 [2]): no obvious
- activation of PAQR8 stronger than GPR126 (potency) (PAQR8): ~100 fold
- efficacy at PAQR8 compared with GPR126 (PAQR8): significant lower efficacy
- Gs coupling of GPR126 (GPR126 [3]): not detectable
- colony number and size in Sh-CTRL cells (MDA-MB-231 cells [4]; MDA-MB-231 Sh-CTRL, 10 nM): increase
- increase in colony number and size after GPR126 knockdown (MDA-MB-231 cells [4]; MDA-MB-231 Sh-GPR126, 10 nM): largely abolished
- growth of GPR126-silenced cells overexpressing wild-type GPR126 or L937A (MDA-MB-231 cells [5]): significantly promoted
- growth promotion in GPR126-silenced cells overexpressing W1081A or F1085A (MDA-MB-231 cells [5]): significantly attenuated
- increase in growth rate of Sh-CTRL cells (MDA-MB-231 cells [5]): approximately twofold
- induced cell growth in GPR126-silenced cells overexpressing R1057Q (MDA-MB-231 cells [5]): inhibited
- proliferation-promoting effect in GPR126-silenced cells (MDA-MB-231 cells [5]): attenuated
- p-SRC Y416 level, F1085A or W1081A overexpressed in GPR126-silenced cells (SRC; 5 min): failed to increase
- pY416 SRC phosphorylation, GPR126 wild-type or L937A overexpressed in GPR126-silenced cells (SRC; 5 min): able to promote
- time of maximum phosphorylation after treatment (SRC; MDA-MB-231 cells): 5 min
- phosphorylation of SRC at Y416, p-AKT S473 and p-ERK T202/Y204 (SRC; MDA-MB-231 cells, time-dependent): promoted
- activation of PAQR7 stronger than GPR126 (potency) (PAQR7): ~100 fold
- efficacy at PAQR7 compared with GPR126 (PAQR7): significant lower efficacy
- maximum plasma concentration ([6]; mice, 15 mg/kg intraperitoneal injection): 151 nM
- steady plasma level ([6]; mice, 15 mg/kg intraperitoneal injection, from 8 h): 4.547 nM
- Tmax ([6]; nude, mouse, plasma, ip, 15 mg/kg): ~1 h
- BRET signal between Nluc-N terminus and FlAsH-labeled S1 site of ECL1 (GPR126 [7]): increase
- GPR126 response with mutation of F1085 (GPR126 [7]): impaired
- extracellular conformational change of GPR126 with K1001 or F1012 mutated to Ala (GPR126 [7]): no significant effects
- BRET signal between Nluc-tagged N terminus and FlAsH-labeled ECL2 (GPR126 [7]; concentration-dependent): significant increase
